Reference: the kinase profiling compilation of Christmann-Franck et al. (2016)

Assays:
Experiment in all cases: KINOMEscan competition binding
Conditions in all cases: compound 10.0 µM
MAP2K4 (human) = MAP2K4 (human) (UniProt P45985)
EGFR (human) = EGFR (human) (UniProt P00533)
CDK19 (human) = CDK19 (human) (UniProt Q9BWU1)
NUAK2 (human) = NUAK2 (human) (UniProt Q9H093)
IKBKB (human) = IKBKB (human) (UniProt O14920)
[1] = system: FLT3 (human), P36888 [D835H]
AKT1 (human) = AKT1 (human) (UniProt P31749)
MAPK15 (human) = MAPK15 (human) (UniProt Q8TD08)
MAPK15 (human), sequence (Q8TD08 whole entry, looked up): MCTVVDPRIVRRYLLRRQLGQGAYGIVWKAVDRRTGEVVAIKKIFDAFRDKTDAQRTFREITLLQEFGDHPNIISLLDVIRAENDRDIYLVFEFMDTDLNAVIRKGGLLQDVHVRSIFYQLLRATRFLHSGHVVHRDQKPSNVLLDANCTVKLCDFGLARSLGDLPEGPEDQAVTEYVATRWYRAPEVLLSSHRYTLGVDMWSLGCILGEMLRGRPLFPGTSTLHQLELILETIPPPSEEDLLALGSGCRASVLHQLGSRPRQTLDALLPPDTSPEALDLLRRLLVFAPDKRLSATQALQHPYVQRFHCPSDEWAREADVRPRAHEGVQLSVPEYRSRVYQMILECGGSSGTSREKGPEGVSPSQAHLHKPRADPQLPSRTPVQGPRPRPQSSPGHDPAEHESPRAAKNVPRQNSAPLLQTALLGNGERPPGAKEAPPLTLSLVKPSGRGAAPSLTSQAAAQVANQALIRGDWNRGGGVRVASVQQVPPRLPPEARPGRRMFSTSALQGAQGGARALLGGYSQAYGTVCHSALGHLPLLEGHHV

PIM1 (human) = PIM1 (human) (UniProt P11309)
EPHB2 (human) = EPHB2 (human) (UniProt P29323)
CDK4 CCND3 (human) = CDK4 CCND3 (human) (UniProt P11802+P30281)
MYLK2 (human) = MYLK2 (human) (UniProt Q9H1R3)
TNK1 (human) = TNK1 (human) (UniProt Q13470)
CDK2 (human) = CDK2 (human) (UniProt P24941)
PLK1 (human) = PLK1 (human) (UniProt P53350)
OXSR1 (human) = OXSR1 (human) (UniProt O95747)
EPHA3 (human) = EPHA3 (human) (UniProt P29320)
SRPK1 (human) = SRPK1 (human) (UniProt Q96SB4)
ERBB2 (human) = ERBB2 (human) (UniProt P04626)
ERBB2 (human), sequence (P04626 whole entry, looked up): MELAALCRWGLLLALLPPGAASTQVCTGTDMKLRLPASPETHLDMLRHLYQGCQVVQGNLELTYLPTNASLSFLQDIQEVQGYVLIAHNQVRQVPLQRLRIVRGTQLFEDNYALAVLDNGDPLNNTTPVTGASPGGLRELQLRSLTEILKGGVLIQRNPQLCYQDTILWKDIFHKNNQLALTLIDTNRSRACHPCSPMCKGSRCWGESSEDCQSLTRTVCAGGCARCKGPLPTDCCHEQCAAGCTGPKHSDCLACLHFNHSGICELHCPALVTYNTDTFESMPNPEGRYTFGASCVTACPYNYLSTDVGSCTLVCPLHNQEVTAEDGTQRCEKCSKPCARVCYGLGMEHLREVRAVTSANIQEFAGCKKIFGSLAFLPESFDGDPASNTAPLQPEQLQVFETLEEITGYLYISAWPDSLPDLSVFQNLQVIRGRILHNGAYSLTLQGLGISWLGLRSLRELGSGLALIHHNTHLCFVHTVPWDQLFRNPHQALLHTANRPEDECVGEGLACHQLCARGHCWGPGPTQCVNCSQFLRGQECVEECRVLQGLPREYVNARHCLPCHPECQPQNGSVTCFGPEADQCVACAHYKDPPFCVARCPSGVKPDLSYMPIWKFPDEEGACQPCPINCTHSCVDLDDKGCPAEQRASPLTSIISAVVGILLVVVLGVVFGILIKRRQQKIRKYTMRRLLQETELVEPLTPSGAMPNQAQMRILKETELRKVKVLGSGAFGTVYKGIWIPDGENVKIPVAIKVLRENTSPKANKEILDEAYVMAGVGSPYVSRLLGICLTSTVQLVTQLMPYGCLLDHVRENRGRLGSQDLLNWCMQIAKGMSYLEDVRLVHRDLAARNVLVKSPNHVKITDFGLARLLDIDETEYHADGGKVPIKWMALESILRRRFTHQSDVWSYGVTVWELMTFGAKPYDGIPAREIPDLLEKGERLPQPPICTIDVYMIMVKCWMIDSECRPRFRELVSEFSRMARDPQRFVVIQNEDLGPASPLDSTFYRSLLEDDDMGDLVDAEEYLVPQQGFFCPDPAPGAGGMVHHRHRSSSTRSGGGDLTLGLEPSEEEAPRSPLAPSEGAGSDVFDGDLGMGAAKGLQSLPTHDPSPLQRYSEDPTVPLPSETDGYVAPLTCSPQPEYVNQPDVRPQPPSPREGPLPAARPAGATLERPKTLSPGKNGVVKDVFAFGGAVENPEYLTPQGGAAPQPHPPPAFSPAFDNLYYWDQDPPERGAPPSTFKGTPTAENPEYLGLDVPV

HIPK2 (human) = HIPK2 (human) (UniProt Q9H2X6)
HIPK2 (human), sequence (Q9H2X6 whole entry, looked up): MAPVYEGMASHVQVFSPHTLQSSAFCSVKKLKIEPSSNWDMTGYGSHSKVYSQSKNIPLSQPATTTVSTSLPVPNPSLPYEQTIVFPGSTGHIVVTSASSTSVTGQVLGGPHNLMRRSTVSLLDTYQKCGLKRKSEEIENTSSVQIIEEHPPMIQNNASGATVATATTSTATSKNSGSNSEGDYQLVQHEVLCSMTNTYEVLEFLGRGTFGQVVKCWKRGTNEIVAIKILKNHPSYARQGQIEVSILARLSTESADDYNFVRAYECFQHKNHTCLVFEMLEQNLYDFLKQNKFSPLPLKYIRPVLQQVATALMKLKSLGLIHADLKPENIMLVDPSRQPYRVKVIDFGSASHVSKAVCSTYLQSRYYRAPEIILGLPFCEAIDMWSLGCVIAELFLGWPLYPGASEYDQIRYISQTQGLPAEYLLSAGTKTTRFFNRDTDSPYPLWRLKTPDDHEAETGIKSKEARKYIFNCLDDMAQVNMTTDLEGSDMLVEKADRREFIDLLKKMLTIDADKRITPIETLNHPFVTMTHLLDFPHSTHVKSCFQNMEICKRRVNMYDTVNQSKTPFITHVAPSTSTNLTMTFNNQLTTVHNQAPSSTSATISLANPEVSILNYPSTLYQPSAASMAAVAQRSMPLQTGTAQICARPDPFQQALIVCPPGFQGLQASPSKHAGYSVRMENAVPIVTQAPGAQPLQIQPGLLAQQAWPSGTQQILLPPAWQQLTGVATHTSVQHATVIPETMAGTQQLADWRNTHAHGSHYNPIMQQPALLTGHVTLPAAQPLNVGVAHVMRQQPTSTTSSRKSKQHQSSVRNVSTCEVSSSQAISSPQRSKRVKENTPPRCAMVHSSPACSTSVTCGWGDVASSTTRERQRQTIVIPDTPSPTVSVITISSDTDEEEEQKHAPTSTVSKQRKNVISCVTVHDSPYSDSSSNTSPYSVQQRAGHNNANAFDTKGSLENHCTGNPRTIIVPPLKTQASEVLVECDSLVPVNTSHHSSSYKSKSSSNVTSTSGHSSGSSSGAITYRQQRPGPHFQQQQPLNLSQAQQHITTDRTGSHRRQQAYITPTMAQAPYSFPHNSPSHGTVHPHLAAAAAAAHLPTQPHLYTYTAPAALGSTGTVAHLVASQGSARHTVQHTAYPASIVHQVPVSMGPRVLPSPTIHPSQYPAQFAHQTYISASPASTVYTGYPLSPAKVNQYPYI

ROCK1 (human) = ROCK1 (human) (UniProt Q13464)
WEE2 (human) = WEE2 (human) (UniProt P0C1S8)
WEE2 (human), sequence (P0C1S8 whole entry, looked up): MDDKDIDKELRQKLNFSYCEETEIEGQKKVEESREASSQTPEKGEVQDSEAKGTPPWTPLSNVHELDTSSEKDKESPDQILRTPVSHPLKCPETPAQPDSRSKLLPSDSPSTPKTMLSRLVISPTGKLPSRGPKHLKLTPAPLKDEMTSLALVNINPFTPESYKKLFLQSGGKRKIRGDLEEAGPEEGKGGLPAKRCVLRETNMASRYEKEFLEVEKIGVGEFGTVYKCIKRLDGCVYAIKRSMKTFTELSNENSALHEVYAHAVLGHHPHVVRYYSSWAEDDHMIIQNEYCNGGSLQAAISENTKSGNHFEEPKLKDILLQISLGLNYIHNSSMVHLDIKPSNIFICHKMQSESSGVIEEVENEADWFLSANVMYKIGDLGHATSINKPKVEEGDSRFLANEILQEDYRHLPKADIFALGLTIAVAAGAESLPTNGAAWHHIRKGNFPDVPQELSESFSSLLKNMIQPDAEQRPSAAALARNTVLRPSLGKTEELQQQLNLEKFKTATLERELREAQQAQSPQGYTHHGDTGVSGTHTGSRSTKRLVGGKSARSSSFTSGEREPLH

HIPK4 (human) = HIPK4 (human) (UniProt Q8NE63)
[2] = system: EGFR (human), P00533 [T790M]
PIM3 (human) = PIM3 (human) (UniProt Q86V86)
STK36 (human) = STK36 (human) (UniProt Q9NRP7)
TAOK1 (human) = TAOK1 (human) (UniProt Q7L7X3)
MAP3K11 (human) = MAP3K11 (human) (UniProt Q16584)
HUNK (human) = HUNK (human) (UniProt P57058)
CDK13 (human) = CDK13 (human) (UniProt Q14004)
TEC (human) = TEC (human) (UniProt P42680)
MAPK13 (human) = MAPK13 (human) (UniProt O15264)
RET (human) = RET (human) (UniProt P07949)
FGFR3 (human) = FGFR3 (human) (UniProt P22607)
[3] = system: PIK3CA (human), P42336 [E542K]
CDKL5 (human) = CDKL5 (human) (UniProt O76039)
PAK7 (human) = PAK7 (human) (UniProt Q9P286)
PAK7 (human), sequence (Q9P286 whole entry, looked up): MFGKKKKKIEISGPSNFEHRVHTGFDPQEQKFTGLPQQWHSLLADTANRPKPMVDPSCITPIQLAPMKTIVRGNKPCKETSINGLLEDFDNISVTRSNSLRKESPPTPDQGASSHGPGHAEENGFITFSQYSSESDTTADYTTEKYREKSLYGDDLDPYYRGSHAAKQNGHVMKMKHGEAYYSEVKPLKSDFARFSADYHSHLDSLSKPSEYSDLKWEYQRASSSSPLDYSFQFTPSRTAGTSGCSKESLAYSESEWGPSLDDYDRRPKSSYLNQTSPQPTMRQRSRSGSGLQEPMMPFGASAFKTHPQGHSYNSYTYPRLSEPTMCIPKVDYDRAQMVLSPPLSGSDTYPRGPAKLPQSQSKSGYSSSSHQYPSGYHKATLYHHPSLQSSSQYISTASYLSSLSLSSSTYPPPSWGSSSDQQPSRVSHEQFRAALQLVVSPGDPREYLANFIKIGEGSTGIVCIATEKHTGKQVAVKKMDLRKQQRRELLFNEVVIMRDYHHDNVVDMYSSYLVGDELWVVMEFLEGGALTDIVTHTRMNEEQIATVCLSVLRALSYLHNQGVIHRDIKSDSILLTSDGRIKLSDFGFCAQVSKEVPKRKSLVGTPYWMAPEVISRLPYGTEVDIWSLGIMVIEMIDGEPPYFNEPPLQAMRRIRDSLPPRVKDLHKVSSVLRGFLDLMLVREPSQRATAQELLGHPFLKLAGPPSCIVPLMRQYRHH

[4] = system: MET (human), P08581 [Y1235D]
CAMK2D (human) = CAMK2D (human) (UniProt Q13557)
YSK4 (human) = YSK4 (human) (UniProt Q56UN5)
CAMK1D (human) = CAMK1D (human) (UniProt Q8IU85)

IKBKB (human), sequence (O14920 whole entry, looked up): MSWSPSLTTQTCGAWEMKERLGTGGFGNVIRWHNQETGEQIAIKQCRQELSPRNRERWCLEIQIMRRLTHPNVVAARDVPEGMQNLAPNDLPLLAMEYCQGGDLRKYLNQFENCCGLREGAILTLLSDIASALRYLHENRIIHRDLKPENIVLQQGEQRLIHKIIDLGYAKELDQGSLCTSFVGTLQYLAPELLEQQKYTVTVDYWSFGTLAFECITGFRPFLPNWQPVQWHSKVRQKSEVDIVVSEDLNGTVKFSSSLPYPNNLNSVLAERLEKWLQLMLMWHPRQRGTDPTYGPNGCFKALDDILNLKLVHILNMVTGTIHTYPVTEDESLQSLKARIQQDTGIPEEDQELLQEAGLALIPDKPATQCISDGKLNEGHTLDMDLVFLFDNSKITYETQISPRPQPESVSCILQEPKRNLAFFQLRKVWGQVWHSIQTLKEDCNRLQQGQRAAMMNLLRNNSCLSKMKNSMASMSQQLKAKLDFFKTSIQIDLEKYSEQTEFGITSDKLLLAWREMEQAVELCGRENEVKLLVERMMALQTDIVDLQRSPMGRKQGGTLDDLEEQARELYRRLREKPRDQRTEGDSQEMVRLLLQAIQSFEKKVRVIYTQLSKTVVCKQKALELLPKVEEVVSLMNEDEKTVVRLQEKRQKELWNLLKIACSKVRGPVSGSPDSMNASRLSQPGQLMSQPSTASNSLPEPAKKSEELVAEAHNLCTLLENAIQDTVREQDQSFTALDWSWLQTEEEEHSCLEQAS

CCC(=O)N1CCN(c2ccc(-n3c(=O)ccc4cnc5ccc(-c6cnc7ccccc7c6)cc5c43)cc2C(F)(F)F)CC1
kinase still bound, per cent of control (MAP2K4 (human)): 30%
kinase still bound, per cent of control (EGFR (human)): 85%
per cent of control (CDK19 (human)): 1.2%
kinase still bound, per cent of control (NUAK2 (human)): 100%
kinase still bound, per cent of control (IKBKB (human)): 61%
kinase still bound, per cent of control [1]: 18%
kinase still bound, per cent of control (AKT1 (human)): 91%
kinase still bound, per cent of control (MAPK15 (human)): 79%
kinase still bound, per cent of control (PIM1 (human)): 80%
kinase still bound, per cent of control (EPHB2 (human)): 100%
per cent of control (CDK4 CCND3 (human)): 87%
kinase still bound, per cent of control (MYLK2 (human)): 40%
kinase still bound, per cent of control (TNK1 (human)): 6.8%
per cent of control (CDK2 (human)): 6.2%
kinase still bound, per cent of control (PLK1 (human)): 85%
kinase still bound, per cent of control (OXSR1 (human)): 100%
kinase still bound, per cent of control (EPHA3 (human)): 70%
kinase still bound, per cent of control (SRPK1 (human)): 100%
kinase still bound, per cent of control (ERBB2 (human)): 91%
kinase still bound, per cent of control (HIPK2 (human)): 58%
kinase still bound, per cent of control (ROCK1 (human)): 53%
kinase still bound, per cent of control (WEE2 (human)): 100%
kinase still bound, per cent of control (HIPK4 (human)): 4.6%
kinase still bound, per cent of control [2]: 100%
kinase still bound, per cent of control (PIM3 (human)): 96%
kinase still bound, per cent of control (STK36 (human)): 17%
kinase still bound, per cent of control (TAOK1 (human)): 58%
kinase still bound, per cent of control (MAP3K11 (human)): 69%
kinase still bound, per cent of control (HUNK (human)): 91%
per cent of control (CDK13 (human)): 80%
kinase still bound, per cent of control (TEC (human)): 99%
kinase still bound, per cent of control (MAPK13 (human)): 39%
kinase still bound, per cent of control (RET (human)): 44%
kinase still bound, per cent of control (FGFR3 (human)): 42%
kinase still bound, per cent of control [3]: 1%
per cent of control (CDKL5 (human)): 100%
kinase still bound, per cent of control (PAK7 (human)): 87%
kinase still bound, per cent of control [4]: 100%
kinase still bound, per cent of control (CAMK2D (human)): 72%
kinase still bound, per cent of control (YSK4 (human)): 38%
kinase still bound, per cent of control (CAMK1D (human)): 88%

COC(=O)Nc1ccc(-c2nc(N3CCOCC3)c3cnn(C4CCN(C(=O)OC)CC4)c3n2)cc1
kinase still bound, per cent of control (MAP2K4 (human)): 74%
kinase still bound, per cent of control (EGFR (human)): 100%
per cent of control (CDK19 (human)): 98%
kinase still bound, per cent of control (NUAK2 (human)): 84%
kinase still bound, per cent of control (IKBKB (human)): 74%
kinase still bound, per cent of control [1]: 91%
kinase still bound, per cent of control (AKT1 (human)): 82%
kinase still bound, per cent of control (MAPK15 (human)): 100%
kinase still bound, per cent of control (PIM1 (human)): 100%
kinase still bound, per cent of control (EPHB2 (human)): 100%
per cent of control (CDK4 CCND3 (human)): 100%
kinase still bound, per cent of control (MYLK2 (human)): 100%
kinase still bound, per cent of control (TNK1 (human)): 100%
per cent of control (CDK2 (human)): 91%
kinase still bound, per cent of control (PLK1 (human)): 90%
kinase still bound, per cent of control (OXSR1 (human)): 90%
kinase still bound, per cent of control (EPHA3 (human)): 84%
kinase still bound, per cent of control (SRPK1 (human)): 100%
kinase still bound, per cent of control (ERBB2 (human)): 100%
kinase still bound, per cent of control (HIPK2 (human)): 65%
kinase still bound, per cent of control (ROCK1 (human)): 82%
kinase still bound, per cent of control (WEE2 (human)): 95%
kinase still bound, per cent of control (HIPK4 (human)): 97%
kinase still bound, per cent of control [2]: 100%
kinase still bound, per cent of control (PIM3 (human)): 100%
kinase still bound, per cent of control (STK36 (human)): 91%
kinase still bound, per cent of control (TAOK1 (human)): 83%
kinase still bound, per cent of control (MAP3K11 (human)): 97%
kinase still bound, per cent of control (HUNK (human)): 95%
per cent of control (CDK13 (human)): 100%
kinase still bound, per cent of control (TEC (human)): 96%
kinase still bound, per cent of control (MAPK13 (human)): 0%
kinase still bound, per cent of control (RET (human)): 93%
kinase still bound, per cent of control (FGFR3 (human)): 99%
kinase still bound, per cent of control [3]: 5.2%
per cent of control (CDKL5 (human)): 100%
kinase still bound, per cent of control (PAK7 (human)): 80%
kinase still bound, per cent of control (CAMK2D (human)): 100%
kinase still bound, per cent of control (YSK4 (human)): 75%
kinase still bound, per cent of control (CAMK1D (human)): 85%

CC(C)n1nc(-c2cc3cc(O)ccc3[nH]2)c2c(N)ncnc21
kinase still bound, per cent of control (MAP2K4 (human)): 3.4%
per cent of control (CDK19 (human)): 24%
kinase still bound, per cent of control (NUAK2 (human)): 9.2%
kinase still bound, per cent of control (IKBKB (human)): 84%
kinase still bound, per cent of control [1]: 7.4%
kinase still bound, per cent of control (AKT1 (human)): 100%
kinase still bound, per cent of control (MAPK15 (human)): 54%
kinase still bound, per cent of control (PIM1 (human)): 26%
kinase still bound, per cent of control (EPHB2 (human)): 32%
per cent of control (CDK4 CCND3 (human)): 57%
kinase still bound, per cent of control (MYLK2 (human)): 43%
kinase still bound, per cent of control (TNK1 (human)): 34%
per cent of control (CDK2 (human)): 69%
kinase still bound, per cent of control (PLK1 (human)): 87%
kinase still bound, per cent of control (OXSR1 (human)): 80%
kinase still bound, per cent of control (EPHA3 (human)): 1.5%
kinase still bound, per cent of control (SRPK1 (human)): 100%
kinase still bound, per cent of control (ERBB2 (human)): 29%
kinase still bound, per cent of control (HIPK2 (human)): 0.9%
kinase still bound, per cent of control (ROCK1 (human)): 61%
kinase still bound, per cent of control (WEE2 (human)): 100%
kinase still bound, per cent of control (HIPK4 (human)): 27%
kinase still bound, per cent of control (PIM3 (human)): 31%
kinase still bound, per cent of control (STK36 (human)): 100%
kinase still bound, per cent of control (TAOK1 (human)): 0.2%
kinase still bound, per cent of control (MAP3K11 (human)): 79%
kinase still bound, per cent of control (HUNK (human)): 99%
per cent of control (CDK13 (human)): 100%
kinase still bound, per cent of control (TEC (human)): 100%
kinase still bound, per cent of control (MAPK13 (human)): 97%
kinase still bound, per cent of control (RET (human)): 0%
kinase still bound, per cent of control (FGFR3 (human)): 9.2%
per cent of control (CDKL5 (human)): 100%
kinase still bound, per cent of control (PAK7 (human)): 8.6%
kinase still bound, per cent of control [4]: 88%
kinase still bound, per cent of control (CAMK2D (human)): 69%
kinase still bound, per cent of control (YSK4 (human)): 0%

COc1ccc(-c2ccc3c(N4CCOCC4)nc(N4C[C@@H](C)O[C@@H](C)C4)nc3n2)cc1CO
kinase still bound, per cent of control (MAP2K4 (human)): 88%
kinase still bound, per cent of control (EGFR (human)): 100%
per cent of control (CDK19 (human)): 73%
kinase still bound, per cent of control (NUAK2 (human)): 100%
kinase still bound, per cent of control (IKBKB (human)): 100%
kinase still bound, per cent of control [1]: 100%
kinase still bound, per cent of control (AKT1 (human)): 88%
kinase still bound, per cent of control (MAPK15 (human)): 96%
kinase still bound, per cent of control (PIM1 (human)): 94%
kinase still bound, per cent of control (EPHB2 (human)): 100%
per cent of control (CDK4 CCND3 (human)): 80%
kinase still bound, per cent of control (MYLK2 (human)): 78%
kinase still bound, per cent of control (TNK1 (human)): 100%
per cent of control (CDK2 (human)): 77%
kinase still bound, per cent of control (PLK1 (human)): 55%
kinase still bound, per cent of control (OXSR1 (human)): 72%
kinase still bound, per cent of control (EPHA3 (human)): 90%
kinase still bound, per cent of control (SRPK1 (human)): 100%
kinase still bound, per cent of control (ERBB2 (human)): 94%
kinase still bound, per cent of control (HIPK2 (human)): 58%
kinase still bound, per cent of control (ROCK1 (human)): 89%
kinase still bound, per cent of control (WEE2 (human)): 100%
kinase still bound, per cent of control (HIPK4 (human)): 88%
kinase still bound, per cent of control [2]: 100%
kinase still bound, per cent of control (PIM3 (human)): 100%
kinase still bound, per cent of control (STK36 (human)): 92%
kinase still bound, per cent of control (TAOK1 (human)): 83%
kinase still bound, per cent of control (MAP3K11 (human)): 100%
kinase still bound, per cent of control (HUNK (human)): 90%
per cent of control (CDK13 (human)): 100%
kinase still bound, per cent of control (TEC (human)): 92%
kinase still bound, per cent of control (MAPK13 (human)): 71%
kinase still bound, per cent of control (RET (human)): 91%
kinase still bound, per cent of control (FGFR3 (human)): 100%
kinase still bound, per cent of control [3]: 2.8%
per cent of control (CDKL5 (human)): 77%
kinase still bound, per cent of control (PAK7 (human)): 76%
kinase still bound, per cent of control [4]: 100%
kinase still bound, per cent of control (CAMK2D (human)): 100%
kinase still bound, per cent of control (YSK4 (human)): 100%
kinase still bound, per cent of control (CAMK1D (human)): 89%
